“Also recorded” adds a separate entry of the source. Like-named read-outs stand apart in the source and are kept apart here.
Legend:
vasopressin V2 receptor = target: T1, vasopressin V2 receptor (Rattus norvegicus, UniProt Q00788); assay: in vivo assay described in PCT/GB2001/000023 (inhibition of urine output); conditions: at 1 hour, dosed at 1 mg/Kg
T1 construct: from tissue; host or cells: whole animal (in vivo)
Text: The ability of the crystalline form of the invention to agonise the vasopressin V2 receptor may be determined using the in vivo assay described in PCT/GB2001/000023.

[1] = Gravimetric Vapour Sorption Analysis (GVA), hygroscopicity testing; assay type: physicochemical
Experimental: Gravimetric Vapour Sorption Analysis (GVA) was carried out with approximately 20 mg of sample placed into a suitable sample holder such as a wire-mesh vapour sorption balance pan. This was loaded into either an IGAsorp (Hiden Analytical Instruments) or a DVS Intrinsic (Surface Measurement Systems) vapour sorption balance held at 25+/−0.1° C. The sample was then dried by maintaining a 0% humidity environment until no further weight change was recorded (alternatively, the sorption/desorption cycle is initiated at typical ambient conditions of 40% relative humidity). Subsequently, the sample was then subjected to a ramping profile up to 90% relative humidity at 10% relative humidity increments, maintaining the sample at each step until equilibration had been attained (99.5% step completion). Upon reaching equilibration, the relative humidity within the apparatus was ramped to the next step and the equilibration procedure repeated. After completion of the sorption cycle, the sample was then dried using the same procedure. The weight change during the sorption/desorption cycles was then monitored, allowing for the hygroscopic nature of the sample to be determined.
The amorphous form is hygroscopic as indicated by Gravimetric Vapour Sorption Analysis (GVA).
In contrast, there was no significant water uptake observed between 40% RH and 90% RH (approximately 0.3% w/w) by the crystalline solid form (the water sorption/desorption isotherms are shown in FIGS. 9 and 10).

[2] = Stability testing: storage for 6 months at 40° C. and 75% relative humidity (Karl Fischer, HPLC, appearance); assay type: physicochemical; conditions: for sum of impurities (HPLC), initial / water / moisture content (Karl Fischer), initial: before storage
Experimental: Karl Fischer moisture content determination was carried out using Metrohm 795 KFT volumetric Karl Fischer apparatus. Sample size was approximately 100 mg and the determination was carried out in duplicate.
HPLC data were collected using a Zorbax Extend C18, 2.1 mm×150 mm, 5 μm d.p. column. Flow rate was 0.3 mL/min. Injection volume was 10 μL, detector wavelength 220 nm and column temperature 40° C. Eluent A was 10 mM aqueous ammonium acetate, pH 5.0. Eluent B was 20:80 v/v 10 mM aqueous ammonium acetate: acetonitrile. The gradient programme is shown below: […]
Also, there is no significant degradation as measured by the sum of impurities which increases only from 0.9% to 1.0% (HPLC).

[3] = 6 months at 40° C. and 75% relative humidity

T1 sequence (Q00788 whole entry): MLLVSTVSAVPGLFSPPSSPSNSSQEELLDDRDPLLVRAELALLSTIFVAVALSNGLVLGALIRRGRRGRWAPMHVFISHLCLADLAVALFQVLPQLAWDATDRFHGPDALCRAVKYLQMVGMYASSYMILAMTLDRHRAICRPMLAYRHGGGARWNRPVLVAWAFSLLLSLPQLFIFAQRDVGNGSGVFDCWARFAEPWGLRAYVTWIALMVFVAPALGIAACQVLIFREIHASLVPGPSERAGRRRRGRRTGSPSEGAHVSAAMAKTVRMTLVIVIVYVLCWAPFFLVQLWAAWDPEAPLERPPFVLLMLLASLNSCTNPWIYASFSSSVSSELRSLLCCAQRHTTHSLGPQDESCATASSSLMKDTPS

Row | SMILES | inhibition of urine output (vasopressin V2 receptor) | hygroscopicity (in words) [1] | change in solid form over the entire water sorption range [1] | hygroscopicity (in words) ([1]; listed as amorphous solid) | appearance after storage [2, 3] | sum of impurities (HPLC) after storage [2, 3] | water / moisture content (Karl Fischer) after storage [2, 3] | sum of impurities (HPLC), initial [2] | water / moisture content (Karl Fischer), initial [2] | water uptake between 40% RH and 90% RH ([1]; 25 °C, 40% RH to 90% RH) | change in solid form over the entire water sorption range ([1]; listed as crystalline solid form) | stability (in words) [2, 3] | water / moisture content (Karl Fischer), initial ([2]; listed as Form 1)
1 | Cc1cc(C(=O)N2CCCCc3ccccc32)ccc1CNC(=O)N1CCC[C@H]1C(=O)N(C)C [1-(2-methyl-4-(2,3,4,5-tetrahydro-1-benzazepin-1-ylcarbonyl)benzylcarbamoyl)-L-proline-N,N-dimethylamide] | 82% |  |  |  |  |  |  |  |  |  |  |  | 
2 | Cc1cc(C(=O)N2CCCCc3ccccc32)ccc1CNC(=O)N1CCC[C@H]1C(=O)N(C)C [amorphous form, 1-(2-methyl-4-(2,3,4,5-tetrahydro-1-benzazepin-1-ylcarbonyl)benzylcarbamoyl)-L-proline-N,N-dimethylamide] |  | highly hygroscopic | remained stable to recrystallisation | hygroscopic | became glassy in appearance and became yellow in colour; also recorded: became glassy in appearance and yellow in colour | 3.7% | 5.7% | 1.5% | 1.3% |  |  |  | 
3 | Cc1cc(C(=O)N2CCCCc3ccccc32)ccc1CNC(=O)N1CCC[C@H]1C(=O)N(C)C [crystalline form, 1-(2-methyl-4-(2,3,4,5-tetrahydro-1-benzazepin-1-ylcarbonyl)benzylcarbamoyl)-L-proline-N,N-dimethylamide] |  | much less hygroscopic than the amorphous form | Neither is there any change in solid form |  | remains as a white powder | 1.0% | 3.8% | 0.9% |  | approximately 0.3 % w/w | no change in solid state form | more stable than the amorphous form | 3.8%

From patent US9079881B2, “Polymorph of 1-(2-methyl-4-(2,3,4,5-tetrahydro-1-benzazepin-1-ylcarbonyl)benzylcarbamoyl)-L-proline-N,N-dimethylamide” (Vantia Limited, priority 2010, dated 2015)
